Measurements reported in PubChem BioAssay AID248 (DTP/NCI, 2004).
Several values for one entry are separate records, joined by “and”; a condition that tells them apart may be missing. Equal values may be shown once. Inconclusive results and toxic doses are left out.

Test system: L1210 leukemia ip in BDF1 mice, survival T/C
Assay: NCI In Vivo Anticancer Drug Screen. Data for tumor model L1210 Leukemia (intraperitoneal) in B6D2F1 (BDF1) mice
Settings: endpoint: mean survival time, higher = longer survival
Outline: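 Survival endpoint. Drug-treated group vs vehicle group, expressed as T divided by C. Tumor passaged by transplantation.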

[1] = dose: 100.0 mg/kg/injection, schedule: Q01DX009 (ip), vehicle: Klucel (hydroxypropylcellulose) (HPC)
[2] = dose: 100.0 mg/kg/injection, schedule: Q04DX003 (ip), vehicle: Klucel (hydroxypropylcellulose) (HPC)
[3] = dose: 200.0 mg/kg/injection, schedule: Q01DX009 (ip), vehicle: Klucel (hydroxypropylcellulose) (HPC)
[4] = dose: 200.0 mg/kg/injection, schedule: Q04DX003 (ip), vehicle: Klucel (hydroxypropylcellulose) (HPC)
[5] = dose: 400.0 mg/kg/injection, schedule: Q01DX009 (ip), vehicle: Klucel (hydroxypropylcellulose) (HPC)
[6] = dose: 400.0 mg/kg/injection, schedule: Q04DX003 (ip), vehicle: Klucel (hydroxypropylcellulose) (HPC)
[7] = dose: 100.0 mg/kg/injection, schedule: Q04DX003 (ip), vehicle: saline
[8] = dose: 100.0 mg/kg/injection, schedule: Q01DX009 (ip), vehicle: saline with Tween-80
[9] = dose: 200.0 mg/kg/injection, schedule: Q01DX009 (ip), vehicle: saline with Tween-80
[10] = dose: 100.0 mg/kg/injection, schedule: Q04DX003 (ip), vehicle: saline with Tween-80

**Q.** Which results are given for O=C(O)COc1ccc(OCC(=O)O)cc1?
**A.** T/C [1]: 97 % of control; T/C [2]: 95 % of control; T/C [3]: 89 % of control; T/C [4]: 95 % of control; T/C [5]: 89 % of control; T/C [6]: 92 % of control

**Q.** Which results are given for CCOC(=O)C1(C(=O)OCC)COC(C)(C)OC1?
**A.** T/C [7]: 103 % of control; T/C (dose: 200.0 mg/kg/injection, schedule: Q04DX003 (ip), vehicle: saline): 118 % of control; T/C (dose: 400.0 mg/kg/injection, schedule: Q04DX003 (ip), vehicle: saline): 106 % of control

**Q.** With Cc1nc(N)n(C)n1 as the compound, how does the T/C (dose: 100.0 mg/kg/injection, schedule: Q04DX002 (ip), vehicle: saline) read?
**A.** Its T/C is 104 % of control.

**Q.** What about the T/C (dose: 200.0 mg/kg/injection, schedule: Q04DX002 (ip), vehicle: saline) of the same compound?
**A.** The T/C was 101 % of control.

**Q.** And the T/C (dose: 400.0 mg/kg/injection, schedule: Q04DX002 (ip), vehicle: saline)?
**A.** The T/C was 101 % of control.

**Q.** Which T/C (dose: 12.5 mg/kg/injection, schedule: Q01DX005 (ip), vehicle: saline) does the source give for Nc1ncnc2c1c(C1=NCCCN1)cn2C1OC(CO)C(O)C1O (stereo unspecified) here?
**A.** Its T/C is 117 % of control.

**Q.** And the T/C (dose: 50.0 mg/kg/injection, schedule: Q01DX005 (ip), vehicle: saline)?
**A.** Its T/C is 151 % of control.

**Q.** Which T/C (dose: 25.0 mg/kg/injection, schedule: Q04DX003 (ip), vehicle: Klucel (hydroxypropylcellulose) (HPC)) does the source give for CCN(CC)CCN(CCO)Cc1ccccc1 here?
**A.** The T/C was 98 % of control.

**Q.** What about the T/C (dose: 50.0 mg/kg/injection, schedule: Q01DX009 (ip), vehicle: Klucel (hydroxypropylcellulose) (HPC)) of the same compound?
**A.** The T/C was 92 % of control.

**Q.** What about the T/C (dose: 50.0 mg/kg/injection, schedule: Q04DX003 (ip), vehicle: Klucel (hydroxypropylcellulose) (HPC)) of the same compound?
**A.** Its T/C is 96 % of control.

**Q.** What about the T/C [1] of the same compound?
**A.** Its T/C is 100 % of control.

**Q.** What about the T/C [2] of the same compound?
**A.** The T/C was 98 % of control and 101 % of control.

**Q.** How did the T/C (dose: 25.0 mg/kg/injection, schedule: Q04DX003 (ip), vehicle: saline) turn out when Cc1cccc(C[As](C)(=O)O)c1 was run?
**A.** The T/C was 94 % of control.

**Q.** And the T/C (dose: 50.0 mg/kg/injection, schedule: Q04DX003 (ip), vehicle: saline)?
**A.** The T/C was 98 % of control.

**Q.** What about the T/C [7] of the same compound?
**A.** The T/C was 100 % of control and 103 % of control.

**Q.** Which results are given for CC(=O)C1CCC=C2C1CC1CC2C1(C)C (stereo unspecified)?
**A.** T/C [1]: 106 % of control; T/C [2]: 92 % of control; T/C [3]: 100 % of control; T/C [4]: 87 % of control; T/C [5]: 101 % of control; T/C [6]: 90 % of control

**Q.** With CC1(C)C2=CCCC(O)C2(C)CCC1O (stereo unspecified) as the compound, how does the T/C (dose: 50.0 mg/kg/injection, schedule: Q01DX009 (ip), vehicle: saline with Tween-80) read?
**A.** The T/C was 96 % of control.

**Q.** What about the T/C [8] of the same compound?
**A.** The T/C was 96 % of control.

**Q.** And the T/C [9]?
**A.** Its T/C is 92 % of control.

**Q.** For Cc1ccc(N2CCOC2=O)cc1N1CCOC1=O, which T/C (dose: 25.0 mg/kg/injection, schedule: Q04DX003 (ip), vehicle: other) is on record?
**A.** The T/C was 97 % of control.

**Q.** What about the T/C (dose: 50.0 mg/kg/injection, schedule: Q04DX003 (ip), vehicle: other) of the same compound?
**A.** Its T/C is 104 % of control.

**Q.** What about the T/C (dose: 100.0 mg/kg/injection, schedule: Q04DX003 (ip), vehicle: other) of the same compound?
**A.** Its T/C is 103 % of control.

**Q.** And the T/C [10]?
**A.** Its T/C is 94 % of control.

**Q.** CCOC(=O)C(Cl)c1ccc(OC)cc1 (stereo unspecified) was tested. Which T/C (dose: 100.0 mg/kg/injection, schedule: Q01DX009 (ip), vehicle: other) did it give?
**A.** The T/C was 111 % of control.

**Q.** What about the T/C (dose: 200.0 mg/kg/injection, schedule: Q01DX009 (ip), vehicle: other) of the same compound?
**A.** The T/C was 98 % of control.

**Q.** What about the T/C (dose: 400.0 mg/kg/injection, schedule: Q01DX009 (ip), vehicle: other) of the same compound?
**A.** Its T/C is 102 % of control.

**Q.** With OC1CCOC1 (stereo unspecified) as the compound, how does the T/C [8] read?
**A.** The T/C was 98 % of control.

**Q.** And the T/C [9]?
**A.** The T/C was 97 % of control.

**Q.** And the T/C (dose: 400.0 mg/kg/injection, schedule: Q01DX009 (ip), vehicle: saline with Tween-80)?
**A.** Its T/C is 98 % of control.

**Q.** For S=C([S][Sb]([c]1ccccc1)[c]1ccccc1)N(c1ccccc1)c1ccccc1, which T/C (dose: 5.0 mg/kg/injection, schedule: Q01DX001 (ip), vehicle: other) is on record?
**A.** The T/C was 102 % of control.

**Q.** And the T/C (dose: 10.0 mg/kg/injection, schedule: Q01DX001 (ip), vehicle: other)?
**A.** Its T/C is 102 % of control.

**Q.** And the T/C (dose: 20.0 mg/kg/injection, schedule: Q01DX001 (ip), vehicle: other)?
**A.** Its T/C is 98 % of control.

**Q.** And the T/C (dose: 40.0 mg/kg/injection, schedule: Q01DX001 (ip), vehicle: other)?
**A.** The T/C was 107 % of control.

**Q.** CCCCCCCCCCCCC(=O)OC was tested. Which T/C [10] did it give?
**A.** The T/C was 101 % of control.

**Q.** What about the T/C (dose: 200.0 mg/kg/injection, schedule: Q04DX003 (ip), vehicle: saline with Tween-80) of the same compound?
**A.** The T/C was 96 % of control.

**Q.** What about the T/C (dose: 400.0 mg/kg/injection, schedule: Q04DX003 (ip), vehicle: saline with Tween-80) of the same compound?
**A.** Its T/C is 98 % of control.

**Q.** What does the source list for O=S1(=O)CCCCC1C(O)(c1ccccc1)c1ccccc1 (stereo unspecified)?
**A.** T/C (dose: 12.5 mg/kg/injection, schedule: Q04DX002 (ip), vehicle: saline with Tween-80): 97 % of control; T/C (dose: 25.0 mg/kg/injection, schedule: Q04DX002 (ip), vehicle: saline with Tween-80): 102 % of control; T/C (dose: 50.0 mg/kg/injection, schedule: Q04DX002 (ip), vehicle: saline with Tween-80): 94 % of control
